Experimental data as given in PMC5684323 (2017).

Columns and labels:
[1] = system: STRN3 "ESE" (RNA, single strand) AAGAAGGAACGAAAGGGGAAGAAAGGGG; test: SPR (Biacore), immobilised RNA; conditions: 150 mM NaCl, no Mg2+ (35 mM EDTA); 10 mM HEPES pH 7.4, 0.05% P20, 0.1% DMSO, 25 °C; 10 µM tested
[2] = system: ESE2 RNA (NMR) (RNA, single strand) AAAAAGAAGGAAGG; test: 1H NMR titration; conditions: 50 mM NaCl; 10 mM MES pH 5.5, 10% D2O, 310 K
[3] = system: Exon 7 (RNA, mRNA element) UACAGGGUUUUAGACAAAAUCAAAAAGAAGGAAGGUGCUCACAUUCCUUAAAUUAAGGAGUAAG; test: SPR (Biacore), immobilised RNA; conditions: 150 mM NaCl, no Mg2+ (35 mM EDTA); 10 mM HEPES pH 7.4, 0.05% P20, 0.1% DMSO, 25 °C; 10 µM tested
[4] = system: ESE2 (SPR) (RNA, single strand) AAAAAGAAGGAAGG; test: SPR (Biacore), immobilised RNA; conditions: 150 mM NaCl, no Mg2+ (35 mM EDTA); 10 mM HEPES pH 7.4, 0.05% P20, 0.1% DMSO, 25 °C; 10 µM tested

| binding [1] | binding [2] | binding [3] | binding [4] | Structure (SMILES) |
| --- | --- | --- | --- | --- |
| yes | yes | yes | yes | Cc1cn2cc(-c3cc(=O)n4cc(N5CCN(C)CC5)ccc4n3)cc(F)c2n1 |
| weak | yes |  | weak | Cc1cn2cc(-c3cc(=O)n4cc(N5CCN(C(=O)CCN)CC5)ccc4n3)cc(F)c2n1 |
